The values that follow come from patent publication US20250052678A1, “EVALUATION METHOD, EVALUATION DEVICE, AND INFORMATION PROCESSING PROGRAM” (HAMAMATSU PHOTONICS K.K., priority 2021, published 2025).

The subject of assay [1] is HepG2 cell aggregate (fatty liver model). The assay is described as follows: Lipid droplet volume ratio by distance from center of gravity in HepG2 cell aggregates, measuring method C (Example 2). It is filed as cell-based, Human. How it is done: Preparation of cell aggregates, homogenization, and induction of lipid droplet formation were carried out in the same manner as in Example 1. The refractive index distribution data was evaluated in accordance with Embodiment T3 (FIG. 42). The refractive index distribution data was obtained by the refractive index distribution measuring method C. In the obtained refractive index distribution data, the center of gravity C was calculated, and the refractive index distribution data was evaluated based on distances from the center of gravity C. It was divided into concentric circles at intervals of 2.5 μm from the center of gravity C, and the ratio of the volume of lipid droplets present therein was calculated. The lipid droplet region was set as a region having a refractive index n>1.37, cell region of spheroid as a region having a refractive index n>1.34 and a medium region as a region having a refractive index n≤1.34 and the calculation was carried out. The results of the cell aggregate of the oleic acid-treated HepG2 (fatty liver model) and the control (without oleic acid) were compared.

Assay [2] deals with Human liver cancer-derived cells (HepG2) cell aggregates. As to the kind of experiment: Lipid droplet formation in HepG2 cell aggregates, refractive index distribution measuring method A2 (Example 1). The format is cell-based. Conditions: sodium oleate 0.5 mM, one day. How it is done: Human liver cancer-derived cells (HepG2) were cultured for one day in a cell culture vessel (“EZSPHERE” manufactured by AGC-Techno Glass Co., Ltd.) having low-cell-adhesive compartments to prepare cell aggregates. The low-cell-adhesive compartments are provided with a low-protein-adhesive coat. Cell aggregates were formed in a DMEM medium containing 10% fetal bovine serum in the low-cell-adhesive compartments. A portion of the cell aggregates was cultured for one day in a DMEM medium containing 1% fatty acid-free bovine serum albumin instead of fetal bovine serum, with addition of sodium oleate to a final concentration of 0.5 mM, to induce formation of lipid droplets. The remaining portion of the cell aggregates was cultured for an additional day in a DMEM medium containing 10% fetal bovine serum without the addition of oleic acid (control). […] In the obtained refractive index distribution data, a region where the refractive index (n) was greater than 1.337 was determined as a cell aggregate region. […] A region having a refractive index (n) of greater than 1.375 was determined as a lipid droplet region. The area of the lipid droplet region present in the cell aggregate region of interest was measured.

On to `CCCCCCCC/C=C\CCCCCCCC(=O)O` [oleic acid], for which the “ratio of the volume of lipid droplets versus control (without oleic acid)” value in assay [1] (concentric circles at 2.5 μm intervals from center of gravity C, lipid droplet region n>1.37) was “greater ratio of the volume of lipid droplets”. Further, the “distance from the center of gravity where many lipid droplets exist” value in assay [1] (oleic acid-treated and control alike) is “about 20 μm”. Besides, in assay [2] (FIG. 41B), the “formation of lipid droplets (structures with high refractive index)” value was “induced the formation of lipid droplets”. The “area of the lipid droplet region per cell aggregate relative to control (without oleic acid)” value in assay [2] (lipid droplet region n>1.375, aggregates of maximum diameter 50 to 100 μm) came out at 2.75 times.
